In patent US10259810B2, “N-sulfonylated pyrazolo[3,4-b]pyridin-6-carboxamides and method of use” (AbbVie S.à.r.l., priority 2015, dated 2019):
Read-outs that look alike come from different tables or passages of the source.

Biological target: T1, ΔF508-CFTR (Homo sapiens, UniProt P13569, DEL508-508)
T1 construct: host or cells: CFBE41o-, doxycycline-inducible
Experiment: CFTR cell surface levels using HRP-tagged ΔF508-CFTR expressing CFBE cells, in the presence of a co-corrector
Type: cell-based
Source text: Measuring CFTR Cell Surface Levels Using HRP-Tagged ΔF508-CFTR Expressing CFBE Cells
The HRP-tagged ΔF508-CFTR cell assay measures the expression of CFTR-ΔF508 at the plasma membrane. CFTR-ΔF508 has a folding defect leading to absence of protein at the plasma membrane. This assay is used to evaluate the capacity of compounds to increase the expression of CFTR-ΔF508 at the plasma membrane. The CFTR-ΔF508 is tagged with HRP (horse radish peroxidase enzyme) within the ECL4 (Extracellular loop 4) of CFTR (Phuan, P.-W. et al. Synergy-based small-molecule screen using a human lung epithelial cell line yields ΔF508-CFTR correctors that augment VX-809 maximal efficacy. Mol. Pharmacol. 86, 42-51 (2014)). When HRP-tagged ΔF508-CFTR is present at the plasma membrane, the HRP enzyme activity can be measured. The amount of CFTR-ΔF508 that can be rescued to the plasma membrane is correlated with the amount of functional enzyme that can be measured.
There are several ways to measure the capacity of compounds to rescue CFTR-ΔF508 to the plasma membrane; either compounds are evaluated on their own and the impact on plasma membrane levels is measured or compounds are evaluated in combination with a co-corrector, i.e. a compound that rescues CFTR-ΔF508 to the plasma membrane but rescue can be enhanced by addition of compounds due to a complementary mode of action.
Activity of Compounds in Combination with Co-Corrector:
For this purpose doxycycline-inducible ΔF508-CFTR-HRP expressing CFBE4lo− cells (obtained from Gergely Lukacs, McGill University) were maintained in MEM (Minimum Essential Medium, Gibco; 31095) supplemented with 10% fetal bovine serum (Hyclone; SV30160.03) under puromycin (3 μg/mL) and G418 selection (0.2 mg/mL). For compound testing, cells were seeded at 4000 cells/well in white 384-well plates (Greiner; 781080) in 50 μL of medium containing 0.5 μg/mL doxycycline and incubated for 68 hours at 37° C., 5% CO2. On day four, 10 μL of test compounds diluted in PBS (phosphate buffered saline) were added to the plates at a final DMSO concentration of 0.1%. In order to measure compound synergy with a co-corrector, 3 μM co-corrector (3-[(2R,4R)-4-({[1-(2,2-difluoro-1,3-benzodioxol-5-yl)cyclopropyl]carbonyl}amino)-7-methoxy-3,4-dihydro-2H-chromen-2-yl]benzoic acid) was added along with test compounds. All compound plates contained negative controls (DMSO) and positive controls (3 μM co-corrector). Cell plates were incubated at 33° C., 5% CO2 for 20 hours. On day five, the cells were washed five times with phosphate-buffered saline, and HRP activity was assayed by the addition of 50 μL/well of HRP substrate (SuperSignal™ West Pico Chemiluminescent Substrate, Thermo Scientific; 34080). After incubation for 15 minutes in the dark, the chemiluminescence was measured using a plate reader (EnVision®, Perkin Elmer). Raw data were normalized to percentage activity values using the equation: 100×(Sample−Negative control)/(Positive control−Negative Control).

[1] = HRP-tagged ΔF508-CFTR CFBE cells, in the presence of 3 μM co-corrector
[2] = HRP-tagged ΔF508-CFTR CFBE cells, in the presence of 3 μM co-corrector, read-out: EC50

T1 sequence (P13569 with tags, fused parts or gaps DEL508-508): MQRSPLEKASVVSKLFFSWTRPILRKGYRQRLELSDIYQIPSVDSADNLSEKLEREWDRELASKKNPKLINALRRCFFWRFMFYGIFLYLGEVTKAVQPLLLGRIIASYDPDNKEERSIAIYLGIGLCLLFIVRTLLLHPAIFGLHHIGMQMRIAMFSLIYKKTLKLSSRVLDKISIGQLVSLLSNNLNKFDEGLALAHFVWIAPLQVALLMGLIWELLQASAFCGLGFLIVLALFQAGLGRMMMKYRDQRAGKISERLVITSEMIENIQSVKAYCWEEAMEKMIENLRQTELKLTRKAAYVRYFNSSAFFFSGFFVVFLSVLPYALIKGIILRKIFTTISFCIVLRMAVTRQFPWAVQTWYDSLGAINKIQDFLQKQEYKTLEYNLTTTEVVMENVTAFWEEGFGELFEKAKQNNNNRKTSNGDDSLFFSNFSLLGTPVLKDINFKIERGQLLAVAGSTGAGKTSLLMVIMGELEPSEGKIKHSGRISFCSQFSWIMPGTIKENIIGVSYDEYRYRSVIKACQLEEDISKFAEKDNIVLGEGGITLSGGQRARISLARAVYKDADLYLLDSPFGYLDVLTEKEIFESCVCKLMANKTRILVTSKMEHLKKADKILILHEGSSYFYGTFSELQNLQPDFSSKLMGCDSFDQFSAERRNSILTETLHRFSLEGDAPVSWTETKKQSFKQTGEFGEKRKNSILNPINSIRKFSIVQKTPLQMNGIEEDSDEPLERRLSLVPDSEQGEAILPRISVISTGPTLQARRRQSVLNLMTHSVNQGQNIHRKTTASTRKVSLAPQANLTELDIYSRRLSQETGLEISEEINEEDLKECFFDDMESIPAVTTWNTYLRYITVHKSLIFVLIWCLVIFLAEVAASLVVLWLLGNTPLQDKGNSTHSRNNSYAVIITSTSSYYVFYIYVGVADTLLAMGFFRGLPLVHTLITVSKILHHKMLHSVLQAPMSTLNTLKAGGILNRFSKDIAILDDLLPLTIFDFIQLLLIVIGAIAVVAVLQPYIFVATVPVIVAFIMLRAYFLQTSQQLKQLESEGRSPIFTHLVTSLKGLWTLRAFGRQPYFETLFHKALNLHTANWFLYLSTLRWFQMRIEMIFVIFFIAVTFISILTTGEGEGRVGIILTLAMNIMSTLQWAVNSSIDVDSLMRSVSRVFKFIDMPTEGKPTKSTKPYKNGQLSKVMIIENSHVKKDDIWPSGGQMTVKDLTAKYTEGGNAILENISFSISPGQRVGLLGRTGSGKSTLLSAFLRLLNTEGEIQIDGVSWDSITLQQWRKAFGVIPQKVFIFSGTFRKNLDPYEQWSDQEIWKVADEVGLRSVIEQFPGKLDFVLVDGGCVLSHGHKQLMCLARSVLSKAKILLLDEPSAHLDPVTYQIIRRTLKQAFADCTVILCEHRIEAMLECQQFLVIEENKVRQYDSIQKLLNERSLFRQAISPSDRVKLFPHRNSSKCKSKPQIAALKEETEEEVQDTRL

Row | SMILES | EC50 | % Activation [1] | EC50 [2]
1 | CC(C)c1nn(-c2ccc(F)cc2)c2nc(C(=O)NS(C)(=O)=O)cc(N3CCC(N4CCOCC4)CC3)c12 [Compound 411, 1-(4-fluorophenyl)-N-(methanesulfonyl)-4-[4-(morpholin-4-yl)piperidin-1-yl]-3-(propan-2-yl)-1H-pyrazolo[3,4-b]pyridine-6-carboxamide] | 478 nM | 505% | –
2 | CC(C)N1CCN(c2ccc(-c3cc(C(=O)NS(=O)(=O)N(C)C)nc4c3c(C3CCC3)nn4C3CCCCC3)cc2)CC1 [Compound 547, 3-cyclobutyl-1-cyclohexyl-N-(dimethylsulfamoyl)-4-{4-[4-(propan-2-yl)piperazin-1-yl]phenyl}-1H-pyrazolo[3,4-b]pyridine-6-carboxamide] | – | 372.95% | 349 nM
3 | Cc1nn(-c2ccccc2)c2nc(C(=O)NS(C)(=O)=O)cc(-c3ccc(N4CCOCC4)cc3)c12 [Compound 1, N-(methanesulfonyl)-3-methyl-4-[4-(morpholin-4-yl)phenyl]-1-phenyl-1H-pyrazolo[3,4-b]pyridine-6-carboxamide] | – | 297.2% | 1190 nM
4 | COCC1CCN(c2cc(C(=O)NS(=O)(=O)CC#N)nc3c2c(C2CCC2)nn3-c2ccccc2)CC1 [Compound 364, N-(cyanomethanesulfonyl)-3-cyclobutyl-4-[4-(methoxymethyl)piperidin-1-yl]-1-phenyl-1H-pyrazolo[3,4-b]pyridine-6-carboxamide] | – | 575% | 553 nM
5 | COCCN(C)c1cc(C(=O)NS(C)(=O)=O)nc2c1c(C(C)C)nn2-c1ccc(F)cc1 [Compound 301, 1-(4-fluorophenyl)-N-(methanesulfonyl)-4-[(2-methoxyethyl)(methyl)amino]-3-(propan-2-yl)-1H-pyrazolo[3,4-b]pyridine-6-carboxamide] | – | 376.6% | 1140 nM
6 | COCC1CCN(c2cc(C(=O)NS(=O)(=O)CCC(=O)O)nc3c2c(C2CCC2)nn3-c2ccccc2)CC1 [Compound 289, 3-({3-cyclobutyl-4-[4-(methoxymethyl)piperidin-1-yl]-1-phenyl-1H-pyrazolo[3,4-b]pyridine-6-carbonyl}sulfamoyl)propanoic Acid] | – | 366.4% | 3330 nM
7 | COCC1CCN(c2cc(C(=O)NS(=O)(=O)CCCN3CCC3)nc3c2c(C(C)C)nn3-c2ccc(F)cc2)CC1 [Compound 302, N-[3-(azetidin-1-yl)propane-1-sulfonyl]-1-(4-fluorophenyl)-4-[4-(methoxymethyl)piperidin-1-yl]-3-(propan-2-yl)-1H-pyrazolo[3,4-b]pyridine-6-carboxamide] | – | 401.45% | 1800 nM
8 | CC(=O)N1CC[C@@H]2CN(c3cc(C(=O)NS(=O)(=O)CCCN4CCOCC4)nc4c3c(C3CCC3)nn4-c3ccccc3)CC[C@@H]21 [Compound 332, 4-[(3aR,7aS)-1-acetyloctahydro-5H-pyrrolo[3,2-c]pyridin-5-yl]-3-cyclobutyl-N-[3-(morpholin-4-yl)propane-1-sulfonyl]-1-phenyl-1H-pyrazolo[3,4-b]pyridine-6-carboxamide] | 624 nM | 448.25% | –
9 | CC(C)c1nn(-c2ccc(F)cc2)c2nc(C(=O)NS(C)(=O)=O)cc(OCCC3CCCCN3C)c12 (centres unmarked) [Compound 305, 1-(4-fluorophenyl)-N-(methanesulfonyl)-4-[2-(1-methylpiperidin-2-yl)ethoxy]-3-(propan-2-yl)-1H-pyrazolo[3,4-b]pyridine-6-carboxamide] | – | 267% | 2440 nM
10 | CC(C)Oc1nn(C2CCCCC2)c2nc(C(=O)NS(=O)(=O)N(C)C)cc(-c3ccc(CN4CCCCC4)cc3)c12 [Compound 443, 1-cyclohexyl-N-(dimethylsulfamoyl)-4-{4-[(piperidin-1-yl)methyl]phenyl}-3-[(propan-2-yl)oxy]-1H-pyrazolo[3,4-b]pyridine-6-carboxamide] | – | 332.5% | 184 nM
11 | CC(C)(C)S(=O)(=O)NC(=O)c1cc(OCC2CCOCC2)c2c(C3CCC3)nn(-c3ccccc3)c2n1 [Compound 362, 3-cyclobutyl-N-(2-methylpropane-2-sulfonyl)-4-[(oxan-4-yl)methoxy]-1-phenyl-1H-pyrazolo[3,4-b]pyridine-6-carboxamide] | – | 195.75% | 414 nM
12 | COCC1CCN(c2cc(C(=O)NS(=O)(=O)CCC(=O)OC)nc3c2c(C2CCC2)nn3-c2ccccc2)CC1 [Compound 288, methyl 3-({3-cyclobutyl-4-[4-(methoxymethyl)piperidin-1-yl]-1-phenyl-1H-pyrazolo[3,4-b]pyridine-6-carbonyl}sulfamoyl)propanoate] | – | 566.4% | 74.3 nM
13 | CC(C)c1nn(-c2ccc(F)cc2)c2nc(C(=O)NS(=O)(=O)N(C)C)cc(N3CCC(N4CCOCC4)CC3)c12 [Compound 412, N-(dimethylsulfamoyl)-1-(4-fluorophenyl)-4-[4-(morpholin-4-yl)piperidin-1-yl]-3-(propan-2-yl)-1H-pyrazolo[3,4-b]pyridine-6-carboxamide] | 201 nM | 436.4% | –
14 | CN1CCN(S(=O)(=O)NC(=O)c2cc(OCC3CCOCC3)c3c(C4CCC4)nn(-c4ccccc4)c3n2)CC1 [Compound 361, 3-cyclobutyl-N-(4-methylpiperazine-1-sulfonyl)-4-[(oxan-4-yl)methoxy]-1-phenyl-1H-pyrazolo[3,4-b]pyridine-6-carboxamide] | – | 204.1% | 181 nM
15 | CC(=O)N1CCC(F)(COc2cc(C(=O)NS(C)(=O)=O)nc3c2c(C(C)C)nn3-c2ccc(F)cc2)CC1 [Compound 308, 4-[(1-acetyl-4-fluoropiperidin-4-yl)methoxy]-1-(4-fluorophenyl)-N-(methanesulfonyl)-3-(propan-2-yl)-1H-pyrazolo[3,4-b]pyridine-6-carboxamide] | – | 328.85% | 2490 nM
16 | CC(C)c1nn(-c2ccc(F)cc2)c2nc(C(=O)NS(C)(=O)=O)cc(N3CCC4(CC3)CN(C)C(=O)O4)c12 [Compound 338, 1-(4-fluorophenyl)-N-(methanesulfonyl)-4-(3-methyl-2-oxo-1-oxa-3,8-diazaspiro[4.5]decan-8-yl)-3-(propan-2-yl)-1H-pyrazolo[3,4-b]pyridine-6-carboxamide] | – | 344.25% | 946 nM
17 | CC(=O)N1CCC(COc2cc(C(=O)NS(C)(=O)=O)nc3c2c(C(C)C)nn3-c2ccc(F)cc2)CC1 [Compound 321, 4-[(1-acetylpiperidin-4-yl)methoxy]-1-(4-fluorophenyl)-N-(methanesulfonyl)-3-(propan-2-yl)-1H-pyrazolo[3,4-b]pyridine-6-carboxamide] | – | 314.37% | 497 nM
18 | CC(C)c1nn(-c2ccc(F)cc2)c2nc(C(=O)NS(C)(=O)=O)cc(OCC3COCCO3)c12 (centres unmarked) [Compound 312, 4-[(1,4-dioxan-2-yl)methoxy]-1-(4-fluorophenyl)-N-(methanesulfonyl)-3-(propan-2-yl)-1H-pyrazolo[3,4-b]pyridine-6-carboxamide] | – | 291.5% | 1880 nM
19 | O=C(NS(=O)(=O)N1CCC(N2CCOCC2)CC1)c1cc(OCC2CCOCC2)c2c(C3CCC3)nn(-c3ccccc3)c2n1 [Compound 359, 3-cyclobutyl-N-[4-(morpholin-4-yl)piperidine-1-sulfonyl]-4-[(oxan-4-yl)methoxy]-1-phenyl-1H-pyrazolo[3,4-b]pyridine-6-carboxamide] | – | 236.25% | 299 nM
